Measured values published in patent US6610523B1, “Cytokine-, stress-, and oncoprotein-activated human protein kinase kinases” (University of Massachusetts, priority 1995, dated 2003).

Legend:
Format in all cases: cell-based
p38 MAP kinase [1] = experiment: Immunecomplex protein kinase assay of p38 MAP kinase from treated HeLa cells, ATF2 as substrate; conditions: for p38 activation (in words): PMA 10 nM, EGF 10 nM, sorbitol 300 mM, interleukin-1 10 ng/ml, TNFα 10 ng/ml; for Relative Protein Kinase Activity p38: control = 1.0
Description: (§1) The effect of phorbol ester, EGF, UV radiation, osmotic stress, IL-1, tumor necrosis factor (TNF), and LPS on p38 MAP kinase and JNK1 activity were measured in immunecomplex protein kinase assays using ATP [γ-^32P] and ATF2 as substrates. TNFα and IL-1α were from Genzyme Corp. Lipolysaccharide (LPS) was isolated from lyophilized Salmonella minesota Re595 bacteria as described (Mathison et a. (1988) J. Clin. Invest. 81:1925). Phorbol myristate acetate was from Sigma. EGF was purified from mouse salivary glands (Davis (1988) J. Biol. Chem. 263:9462). Kinase assays were performed using immunoprecipitates of p38 and JNK. The immunocomplexes were washed twice with kinase buffer (described above), and the assays initiated by the addition of 1 μg of ATF2 and 50 μM [γ-^32P]ATP (10 Ci/mmol) in a final volume of 25 μl. The reactions were terminated after 30 minutes at 30° C. by addition of Laemmli sample buffer. The phosphorylation of ATF2 was examined after SDS-PAGE by autoradiography, and the rate of ATF2 phosphorylation quantitated by PhosphorImager analysis. […]

JNK1 [2] = experiment: Immunecomplex protein kinase assay of JNK1 from treated HeLa cells, ATF2 as substrate; conditions: for JNK1 activation (in words): PMA 10 nM, EGF 10 nM, sorbitol 300 mM, interleukin-1 10 ng/ml, TNFα 10 ng/ml; for Relative Protein Kinase Activity JNK: control = 1.0
Description: as §1

ATF2 = experiment: Electrophoretic mobility of ATF2 by immuno-blot in JNK1-transfected CHO cells; conditions: IL-1α 10 ng/ml or fetal bovine serum 20%, 30 minutes at 37° C.
Description: CHO cells were maintained in Ham's F12 medium supplemented with 5% […] (Gibco-BRL). Cells were labeled and transfected with JNK1 as described above. CHO cells were treated with UV-C (40 J/m^2), IL-1α (10 ng/ml) (Genzyme), or fetal bovine serum (20%) (Gibco-BRL). The cells were incubated for 30 minutes at 37° C. prior to harvesting. The electrophoretic mobility of ATF2 after SDS-PAGE was examined by protein immuno-blot analysis.

JNK1 [3] = experiment: JNK1 immunecomplex kinase assay (c-Jun substrate) in CHO cells expressing epitope-tagged JNK1 after osmotic shock
Description: CHO cells were co-transfected with the plasmid pCMV-Flag-Jnk1 and pRSV-Neo (Dérijard et al. (1994) supra) . A stable cell line expressing epitope-tagged Jnk1 (Flag; Immunex Corp.) was isolated by selection with Geneticin (Gibco-BRL). The cells were incubated with 0, 100, 150, 300, 600, or 1000 mM sorbitol for 1 hour at 37° C. The cells were collected in lysis buffer (20 mM Tris, pH 7.4, 1% TRITON® X-100, 2 mM EDTA, 137 mM NaCl, 25 mM β-glycerophosphate, 1 mM orthovanadate, 2 mM pyrophosphate, 10% glycerol, 1 mM phenylmethylsulfonyl fluoride, 10 μg/ml leupeptin) and a soluble extract was obtained by centrifugation at 100,000 g for 30 minutes at […]. The epitope-tagged JNK1 was isolated by immunoprecipitation with the monoclonal antibody M2 (Immunex Corp.). The immunoprecipitates were washed extensively with lysis buffer. Immunecomplex kinase assays were done in 25 μl of 25 mM Hepes, pH 7.4, 25 mM MgCl2, 25 mM β-glycerophosphate, 2 mM dithiothreitol, 100 AM orthovanadate, and 50 AM ATP [γ-^32P] (10 Ci/mmole) with 2.5 μg of bacterially expressed c-Jun (residues 1-79) fused to glutathione-S-transferase (GST) as a substrate. The phosphorylation of c-Jun was examined after SDS-PAGE by autoradiography and PhosphorImager (Molecular Dynamics Inc.) analysis.
The time course of JNK1 protein kinase activation was measured in cells incubated in medium supplemented with 300 mM sorbitol as described above. Increased JNK1 activity was observed within 5 minutes of exposure to sorbitol, with maximum activity occurring after 15-30 minutes.

p38 MAP kinase [4] = experiment: p38 MAP kinase immunecomplex assay (ATF2 substrate) in transfected COS-1 cells; conditions: COS-1 cells transfected with epitope-tagged p38; 10 nM EGF
Description: COS-1 cells were transfected with epitope-tagged p38 MAP kinase, together with an empty expression vector or an expression vector encoding MEK1, MKK3, or MKK4α. Some of the cultures were exposed to UV radiation (40 J/m^2) or treated with 10 nM EGF. p38 MAP kinase was isolated by immunoprecipitation with M2 monoclonal antibody, and the protein kinase activity was measured in the immunecomplex with [γ-^32P]ATP and ATF2 as substrates. The product of the phosphorylation reaction was visualized after SDS-PAGE by autoradiography. […] MKK3 and MKK4 phosphorylation of ATF2 was similar to that seen with p38 MAP kinase isolated from UV-irradiated cells.

JNK1 [5] = experiment: Immunecomplex protein kinase assay of JNK1 from CHO cells that express human CD14, ATF2 as substrate
Description: (§2) The effect of phorbol ester, EGF, UV radiation, osmotic stress, IL-1, tumor necrosis factor (TNF), and LPS on p38 MAP kinase and JNK1 activity were measured in immunecomplex protein kinase assays using ATP [γ-^32P] and ATF2 as substrates. TNFα and IL-1α were from Genzyme Corp. Lipolysaccharide (LPS) was isolated from lyophilized Salmonella minesota Re595 bacteria as described (Mathison et a. (1988) J. Clin. Invest. 81:1925). Phorbol myristate acetate was from Sigma. EGF was purified from mouse salivary glands (Davis (1988) J. Biol. Chem. 263:9462). Kinase assays were performed using immunoprecipitates of p38 and JNK. The immunocomplexes were washed twice with kinase buffer (described above), and the assays initiated by the addition of 1 μg of ATF2 and 50 μM [γ-^32P]ATP (10 Ci/mmol) in a final volume of 25 μl. The reactions were terminated after 30 minutes at 30° C. by addition of Laemmli sample buffer. The phosphorylation of ATF2 was examined after SDS-PAGE by autoradiography, and the rate of ATF2 phosphorylation quantitated by PhosphorImager analysis.
(§3) The effect of LPS on the activity of p38 was examined using CHO cells that express human CD14.

p38 MAP kinase [6] = experiment: Immunecomplex protein kinase assay of p38 MAP kinase from CHO cells that express human CD14, ATF2 as substrate
Description: as §2, §3

[7] = system: reporter plasmid pG5E1bLuc (GAL4 sites, firefly luciferase gene); experiment: GAL4-ATF2 fusion protein co-transfection assay with luciferase reporter plasmid pG5E1bLuc in CHO cells; conditions: luciferase and β-galactosidase mean activity ratio of three experiments
Description: A fusion protein consisting of ATF2 and the GAL4 DNA binding domain was expressed in CHO cells as described above. The activity of the GAL4-ATF2 fusion protein was measured in co-transfection assays with the reporter plasmid pG5E1bLuc (Seth et al. (1992) J. Biol. Chem. 267:24796, hereby specifically incorporated by reference). The reporter plasmid contains five GAL4 sites cloned upstream of a minimal promoter element and the firefly luciferase gene. Transfection efficiency was monitored with a control plasmid that expresses β-galactosidase (pCH110; Pharmacia-LKB Biotechnology). The luciferase and β-galactosidase activity detected in cell extracts was measured as the mean activity ratio of three experiments (Gupta et al. (1993) Proc. Natl. Acad. Sci. USA 90:3216, hereby specifically incorporated by reference).

[8] = CHO cells that express human CD14, 10 ng/ml, control = 1.0

## Tumor Necrosis Factor
p38 MAP kinase [1]
  p38 activation (in words): strongly activated
  Relative Protein Kinase Activity p38: 10.3
JNK1 [2]
  JNK1 activation (in words): strongly activated
  Relative Protein Kinase Activity JNK: 19.3

## Interleukin-1: IL-1α from Genzyme Corp., pro-inflammatory cytokine
p38 MAP kinase [1]
  p38 activation (in words): strongly activated
  Relative Protein Kinase Activity p38: 6.2
ATF2
  shift in ATF2 electrophoretic mobility (in words): A shift in ATF2 electrophoretic mobility was observed
JNK1 [2]
  JNK1 activation (in words): strongly activated
  Relative Protein Kinase Activity JNK: 8.9

## OC[C@@H](O)[C@@H](O)[C@H](O)[C@@H](O)CO [sorbitol]
p38 MAP kinase [1]
  p38 activation (in words): strongly activated
  Relative Protein Kinase Activity p38: 4.2
JNK1 [3]; 300 mM sorbitol
  time of maximum JNK1 activity: 15 to 30 min
  time to increased JNK1 activity: ≤ 5 min
JNK1 [3]; 100, 150, 300, 600 or 1000 mM sorbitol, 1 hour at 37° C.
  JNK1 activation (in words): JNK1 activation was observed at all concentrations
JNK1 [2]
  JNK1 activation (in words): strongly activated
  Relative Protein Kinase Activity JNK: 18.1

## Epidermal Growth Factor: EGF purified from mouse salivary glands
p38 MAP kinase [1]
  p38 activation (in words): only weakly activated
  Relative Protein Kinase Activity p38: 2.1
p38 MAP kinase [4]
  ATF2 phosphorylation by p38 MAP kinase isolated from treated cells (in words): not phosphorylated
JNK1 [2]
  JNK1 activation (in words): only weakly activated
  Relative Protein Kinase Activity JNK: 1.9

## CCCCCCCCCCCCCC(=O)O[C@@H]1[C@@H](C)[C@@]2(O)[C@@H](C=C(CO)C[C@]3(O)C(=O)C(C)=C[C@@H]23)[C@@H]2C(C)(C)[C@]12OC(C)=O [Phorbol Ester, Phorbol myristate acetate]
p38 MAP kinase [1]
  p38 activation (in words): very weakly activated
  Relative Protein Kinase Activity p38: 2.9
JNK1 [2]
  JNK1 activation (in words): very weakly activated
  Relative Protein Kinase Activity JNK: 2.3

## Lipopolysaccharide
JNK1 [5]; [8]
  Relative Protein Kinase Activity JNK: 3.6
JNK1 [5]; CHO cells, 10 ng/ml LPS
  JNK1 activation (in words): only slightly activated
p38 MAP kinase [6]; [8]
  Relative Protein Kinase Activity p38: 3.7
p38 MAP kinase [6]; CHO cells, 10 ng/ml LPS
  p38 activation (in words): only slightly activated

B1: GAL4-ATF2 (Ala^69.71): GAL4-ATF2 fusion protein with Thr69 and Thr71 replaced with Ala (protein)
chain: MKLLSSIEQACDICRLKKLKCSKEKPKCAKCLKNNWECRYSPKTKRSPLTRAHLTEVESRLERLEQLFLLIFPREDLDMILKMDSLQDIKALLTGLFVQDNVNKDAVTDRLASVETDMPLTLRQHRISATSSSEESSNKGQRQLTVSMKFKLHVNSARQYKDLWNMSDDKPFLCTAPGCGQRFTNEDHLAVHKHKHEMTLKFGPARNDSVIVADQAPAPTRFLKNCEEVGLFNELASPFENEFKKASEDDIKKMPLDLSPLATPIIRSKIEEPSVVETTHQDSPLPHPESTTSDEKEVPLAQTAQPTSAIVRPASLQVPNVLLTSSDSSVIIQQAVPSPTSSTVITQAPSSNRPIVPVPGPFPLLLHLPNGQTMPVAIPASITSSNVHVPAAVPLVRPVTMVPSVPGIPGPSSPQPVQSEAKMRLKAALTQQHPPVTNGDTVKGHGSGLVRTQSEESRPQSLQQPATSTTETPASPAHTTPQTQSTSGRRRRAANEDPDEKRRKFLERNRAAASRCRQKRKVWVQSLEKKAEDLSSLNGQLQSEVTLLRNEVAQLKQLLLAHKDCPVTAMQKKSGYHTADKDDSSEDISVPSSPHTEAIQHSSVSTSNGVSSTSKAEAVATSVLTQMADQSTEPALSQIVMAPSSQSQPSGS
[7]
  LUCIFERASE ACTIVITY: 29,000 Light Units/OD

B2: GAL4-ATF2 (wild type): fusion protein consisting of ATF2 and the GAL4 DNA binding domain, wild-type Thr69,71 (protein)
chain: MKLLSSIEQACDICRLKKLKCSKEKPKCAKCLKNNWECRYSPKTKRSPLTRAHLTEVESRLERLEQLFLLIFPREDLDMILKMDSLQDIKALLTGLFVQDNVNKDAVTDRLASVETDMPLTLRQHRISATSSSEESSNKGQRQLTVSMKFKLHVNSARQYKDLWNMSDDKPFLCTAPGCGQRFTNEDHLAVHKHKHEMTLKFGPARNDSVIVADQTPTPTRFLKNCEEVGLFNELASPFENEFKKASEDDIKKMPLDLSPLATPIIRSKIEEPSVVETTHQDSPLPHPESTTSDEKEVPLAQTAQPTSAIVRPASLQVPNVLLTSSDSSVIIQQAVPSPTSSTVITQAPSSNRPIVPVPGPFPLLLHLPNGQTMPVAIPASITSSNVHVPAAVPLVRPVTMVPSVPGIPGPSSPQPVQSEAKMRLKAALTQQHPPVTNGDTVKGHGSGLVRTQSEESRPQSLQQPATSTTETPASPAHTTPQTQSTSGRRRRAANEDPDEKRRKFLERNRAAASRCRQKRKVWVQSLEKKAEDLSSLNGQLQSEVTLLRNEVAQLKQLLLAHKDCPVTAMQKKSGYHTADKDDSSEDISVPSSPHTEAIQHSSVSTSNGVSSTSKAEAVATSVLTQMADQSTEPALSQIVMAPSSQSQPSGS
[7]
  LUCIFERASE ACTIVITY: 320,000 Light Units/OD
